Test results: the NIST ThermoML archive (doi:10.1016/j.jct.2016.01.001)

Experiment: mn = molality of the nth substance listed, in mol/kg
Conditions: 298.15 K, Ring tensiometer

CC(C)Cc1ccc(C(C)C(=O)[O-])cc1.[Na+] (stereo not drawn) [sodium ibuprofen] + O
Conditions	surface tension liquid-gas [mN/m]
m1 = 0.0022	62.35
m1 = 0.00438	60.76
m1 = 0.00873	58.91
m1 = 0.0216	54.52
m1 = 0.032	51.62
m1 = 0.0423	48.38
m1 = 0.0524	45.51
m1 = 0.0671	42.39
m1 = 0.0815	40.24
m1 = 0.1	38.27
m1 = 0.118	36.11
m1 = 0.135	34.85
m1 = 0.16	33.01
m1 = 0.183	32.02
m1 = 0.206	31.74
m1 = 0.227	31.72
m1 = 0.247	31.73
m1 = 0.267	31.72
